Test results published in patent US20230085307A1, “PYRIDAZINONE COMPOUND AND HERBICIDE” (NISSAN CHEMICAL CORPORATION, priority 2019, published 2023).

System: redroot pigweed
Assay: Test Example 5: herbicidal effect by foliage application, plastic box (Table 20, symbol N)
Assay type: in vivo, redroot pigweed (Amaranthus retroflexus)
Conditions: amount of applied herbicide 320 g/ha; foliage application after 14-day growth; evaluated three weeks after application
How it was run: (§1)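 Plants sown in sterilized diluvial soil and grown 14 days in a greenhouse at 25° C to 30° C, then sprayed on the foliage with the compound's emulsion diluted in water to a predetermined herbicide amount. Injury to weeds and crops scored three weeks after application on a visual rating scale.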

Structure (SMILES)	Herbicidal effect by foliage application, N: redroot pigweed
Cc1nn(C)c(=O)c(-c2c(-c3ccccc3OC(F)(F)F)sc3c(Cl)cccc23)c1O [4-076]	5 (Herbicidal rate of 90% or more (almost completely withered))
COc1ccc(-c2sc3c(C)cccc3c2-c2c(O)c(C)nn(C)c2=O)cc1 [4-110]	5 (Herbicidal rate of 90% or more (almost completely withered))

System: persian speedwell
Assay: Test Example 5: herbicidal effect by foliage application, plastic box (Table 20, symbol R)
Assay type: in vivo, Persian speedwell (Veronica persica)
Conditions: amount of applied herbicide 320 g/ha; foliage application after 14-day growth; evaluated three weeks after application
How it was run: as §1

Structure (SMILES)	Herbicidal effect by foliage application, R: persian speedwell
Cc1nn(C)c(=O)c(-c2c(-c3ccccc3OC(F)(F)F)sc3c(Cl)cccc23)c1O [4-076]	5 (Herbicidal rate of 90% or more (almost completely withered))
COc1ccc(-c2sc3c(C)cccc3c2-c2c(O)c(C)nn(C)c2=O)cc1 [4-110]	5 (Herbicidal rate of 90% or more (almost completely withered))

System: Japanese bulrush
Assay: Test Example 1: herbicidal activity, application before weed generation under submerged conditions (Table 16, symbol B)
Assay type: in vivo, Japanese bulrush (Schoenoplectus juncoides)
Conditions: amount of applied herbicide 320 g/ha
How it was run: (§2)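 Submerged Wagner pots (alluvial soil, 4 cm water) sown with weed seeds and planted with 2.5-leaf rice seedlings; emulsifiable concentrate diluted in water applied to water surface on sowing day. Held in greenhouse at 25-30 °C; injury scored 0-5 by herbicidal rate after three weeks.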

Structure (SMILES)	Herbicidal effect, B: Japanese bulrush
Cc1nn(C)c(=O)c(-c2c(-c3ccccc3OC(F)(F)F)sc3c(Cl)cccc23)c1O [4-076]	3 (Herbicidal rate of 40% or more and less than 70%)
COc1ccc(-c2sc3c(C)cccc3c2-c2c(O)c(C)nn(C)c2=O)cc1 [4-110]	5 (Herbicidal rate of 90% or more (almost completely withered))

System: lambsquarters
Assay: Test Example 5: herbicidal effect by foliage application, plastic box (Table 20, symbol O)
Assay type: in vivo, lambsquarters (Chenopodium album)
Conditions: amount of applied herbicide 320 g/ha; foliage application after 14-day growth; evaluated three weeks after application
How it was run: as §1

Structure (SMILES)	Herbicidal effect by foliage application, O: lambsquarters
Cc1nn(C)c(=O)c(-c2c(-c3ccccc3OC(F)(F)F)sc3c(Cl)cccc23)c1O [4-076]	4 (Herbicidal rate of 70% or more and less than 90%)
COc1ccc(-c2sc3c(C)cccc3c2-c2c(O)c(C)nn(C)c2=O)cc1 [4-110]	5 (Herbicidal rate of 90% or more (almost completely withered))

System: windgrass
Assay: Test Example 5: herbicidal effect by foliage application, plastic box (Table 20, symbol L)
Assay type: in vivo, windgrass (Apera spica-venti)
Conditions: amount of applied herbicide 320 g/ha; foliage application after 14-day growth; evaluated three weeks after application
How it was run: as §1

Structure (SMILES)	Herbicidal effect by foliage application, L: windgrass
Cc1nn(C)c(=O)c(-c2c(-c3ccccc3OC(F)(F)F)sc3c(Cl)cccc23)c1O [4-076]	0 (Herbicidal rate of 5% or less (almost no effect))
COc1ccc(-c2sc3c(C)cccc3c2-c2c(O)c(C)nn(C)c2=O)cc1 [4-110]	4 (Herbicidal rate of 70% or more and less than 90%)

System: southern crabgrass
Assay: Test Example 4: herbicidal effect by soil treatment (Table 19, symbol F)
Assay type: in vivo, southern crabgrass (Digitaria ciliaris)
Conditions: amount of applied herbicide 320 g/ha
How it was run: (§3)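 Seeds were sown in sterilized diluvial soil and covered with about 1.5 cm of soil. An emulsion formulation diluted with water to a predetermined herbicide amount was sprayed evenly onto the soil surface. Plants grew in a greenhouse at 25° C. to 30° C., and the effect was scored three weeks after application using criteria from an earlier test.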

Structure (SMILES)	Herbicidal effect by soil treatment, F: southern crabgrass
Cc1nn(C)c(=O)c(-c2c(-c3ccccc3OC(F)(F)F)sc3c(Cl)cccc23)c1O [4-076]	0 (Herbicidal rate of 5% or less (almost no effect))
COc1ccc(-c2sc3c(C)cccc3c2-c2c(O)c(C)nn(C)c2=O)cc1 [4-110]	0 (Herbicidal rate of 5% or less (almost no effect))

System: oval-leafed pondweed
Assay: Test Example 2: herbicidal activity, application during weed generation under submerged conditions (Table 17, symbol C)
Assay type: in vivo, oval-leafed pondweed (Monochoria vaginalis)
Conditions: AAH 320 g/ha; application during weed generation, submerged conditions
How it was run: (§4)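 Alluvial soil in Wagner pots was flooded to 4 cm depth and sown with the three weeds together; pots were kept in a greenhouse at 25° C. to 30° C. At the one to two leaf stage, an emulsion formulation diluted in water to a set rate went onto the water surface; scored three weeks later.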

Structure (SMILES)	herbicidal effect rating, C: oval-leafed pondweed
Cc1nn(C)c(=O)c(-c2c(-c3ccccc3OC(F)(F)F)sc3c(Cl)cccc23)c1O [4-076]	0 (Herbicidal rate of 5% or less (almost no effect))
COc1ccc(-c2sc3c(C)cccc3c2-c2c(O)c(C)nn(C)c2=O)cc1 [4-110]	5 (Herbicidal rate of 90% or more (almost completely withered))

System: blackgrass
Assay: Test Example 4: herbicidal effect by soil treatment (Table 19, symbol J)
Assay type: in vivo, blackgrass (Alopecurus myosuroides)
Conditions: amount of applied herbicide 320 g/ha
How it was run: as §3

Structure (SMILES)	Herbicidal effect by soil treatment, J: blackgrass
Cc1nn(C)c(=O)c(-c2c(-c3ccccc3OC(F)(F)F)sc3c(Cl)cccc23)c1O [4-076]	0 (Herbicidal rate of 5% or less (almost no effect))
COc1ccc(-c2sc3c(C)cccc3c2-c2c(O)c(C)nn(C)c2=O)cc1 [4-110]	0 (Herbicidal rate of 5% or less (almost no effect))

System: southern crabgrass
Assay: Test Example 5: herbicidal effect by foliage application, plastic box (Table 20, symbol F)
Assay type: in vivo, southern crabgrass (Digitaria ciliaris)
Conditions: amount of applied herbicide 320 g/ha; foliage application after 14-day growth; evaluated three weeks after application
How it was run: as §1

Structure (SMILES)	Herbicidal effect by foliage application, F: southern crabgrass
Cc1nn(C)c(=O)c(-c2c(-c3ccccc3OC(F)(F)F)sc3c(Cl)cccc23)c1O [4-076]	1 (Herbicidal rate of 5% or more and less than 20%)
COc1ccc(-c2sc3c(C)cccc3c2-c2c(O)c(C)nn(C)c2=O)cc1 [4-110]	1 (Herbicidal rate of 5% or more and less than 20%)

System: barnyard grass
Assay: Test Example 4: herbicidal effect by soil treatment (Table 19, symbol H)
Assay type: in vivo, barnyard grass (Echinochloa crus-galli)
Conditions: amount of applied herbicide 320 g/ha
How it was run: as §3

Structure (SMILES)	Herbicidal effect by soil treatment, H: barnyard grass
Cc1nn(C)c(=O)c(-c2c(-c3ccccc3OC(F)(F)F)sc3c(Cl)cccc23)c1O [4-076]	0 (Herbicidal rate of 5% or less (almost no effect))
COc1ccc(-c2sc3c(C)cccc3c2-c2c(O)c(C)nn(C)c2=O)cc1 [4-110]	0 (Herbicidal rate of 5% or less (almost no effect))

System: barnyard grass
Assay: Test Example 3: herbicidal effect by foliage application, Wagner pot (Table 18, symbol H)
Assay type: in vivo, barnyard grass (Echinochloa crus-galli)
Conditions: 320 g/ha
How it was run: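 Plants were sown in alluvial soil held under 0.1–0.5 cm standing water and grown 14 days in a greenhouse at 25–30 °C. An emulsifiable formulation, water-diluted to the set dose, was then sprayed onto the foliage, and effects were scored three weeks later using previously defined criteria.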

Structure (SMILES)	herbicidal effect on barnyard grass (H)
Cc1nn(C)c(=O)c(-c2c(-c3ccccc3OC(F)(F)F)sc3c(Cl)cccc23)c1O [4-076]	4 (Herbicidal rate of 70% or more and less than 90%)
COc1ccc(-c2sc3c(C)cccc3c2-c2c(O)c(C)nn(C)c2=O)cc1 [4-110]	5 (Herbicidal rate of 90% or more (almost completely withered))

System: late watergrass
Assay: Test Example 2: herbicidal activity, application during weed generation under submerged conditions (Table 17, symbol A)
Assay type: in vivo, late watergrass (Echinochloa oryzicola)
Conditions: AAH 320 g/ha; application during weed generation, submerged conditions
How it was run: as §4

Structure (SMILES)	herbicidal effect rating, A: late watergrass
Cc1nn(C)c(=O)c(-c2c(-c3ccccc3OC(F)(F)F)sc3c(Cl)cccc23)c1O [4-076]	3 (Herbicidal rate of 40% or more and less than 70%)
COc1ccc(-c2sc3c(C)cccc3c2-c2c(O)c(C)nn(C)c2=O)cc1 [4-110]	0 (Herbicidal rate of 5% or less (almost no effect))

System: chickweed
Assay: Test Example 4: herbicidal effect by soil treatment (Table 19, symbol P)
Assay type: in vivo, common chickweed (Stellaria media)
Conditions: amount of applied herbicide 320 g/ha
How it was run: as §3

Structure (SMILES)	Herbicidal effect by soil treatment, P: chickweed
Cc1nn(C)c(=O)c(-c2c(-c3ccccc3OC(F)(F)F)sc3c(Cl)cccc23)c1O [4-076]	1 (Herbicidal rate of 5% or more and less than 20%)
COc1ccc(-c2sc3c(C)cccc3c2-c2c(O)c(C)nn(C)c2=O)cc1 [4-110]	5 (Herbicidal rate of 90% or more (almost completely withered))

System: late watergrass
Assay: Test Example 1: herbicidal activity, application before weed generation under submerged conditions (Table 16, symbol A)
Assay type: in vivo, late watergrass (Echinochloa oryzicola)
Conditions: amount of applied herbicide 320 g/ha
How it was run: as §2

Structure (SMILES)	Herbicidal effect, A: late watergrass
Cc1nn(C)c(=O)c(-c2c(-c3ccccc3OC(F)(F)F)sc3c(Cl)cccc23)c1O [4-076]	0 (Herbicidal rate of 5% or less (almost no effect))
COc1ccc(-c2sc3c(C)cccc3c2-c2c(O)c(C)nn(C)c2=O)cc1 [4-110]	5 (Herbicidal rate of 90% or more (almost completely withered))

System: wild oat
Assay: Test Example 5: herbicidal effect by foliage application, plastic box (Table 20, symbol I)
Assay type: in vivo, wild oat (Avena fatua)
Conditions: amount of applied herbicide 320 g/ha; foliage application after 14-day growth; evaluated three weeks after application
How it was run: as §1

Structure (SMILES)	Herbicidal effect by foliage application, I: wild oat
Cc1nn(C)c(=O)c(-c2c(-c3ccccc3OC(F)(F)F)sc3c(Cl)cccc23)c1O [4-076]	0 (Herbicidal rate of 5% or less (almost no effect))
COc1ccc(-c2sc3c(C)cccc3c2-c2c(O)c(C)nn(C)c2=O)cc1 [4-110]	0 (Herbicidal rate of 5% or less (almost no effect))

System: green foxtail
Assay: Test Example 5: herbicidal effect by foliage application, plastic box (Table 20, symbol G)
Assay type: in vivo, green foxtail (Setaria viridis)
Conditions: amount of applied herbicide 320 g/ha; foliage application after 14-day growth; evaluated three weeks after application
How it was run: as §1

Structure (SMILES)	Herbicidal effect by foliage application, G: green foxtail
Cc1nn(C)c(=O)c(-c2c(-c3ccccc3OC(F)(F)F)sc3c(Cl)cccc23)c1O [4-076]	4 (Herbicidal rate of 70% or more and less than 90%)
COc1ccc(-c2sc3c(C)cccc3c2-c2c(O)c(C)nn(C)c2=O)cc1 [4-110]	3 (Herbicidal rate of 40% or more and less than 70%)
